Values of other authors as cited in US20240245628A1, “COMPOSITIONS AND METHODS FOR HEALTH COMPRISING CO-ENZYME Q10” (Bausch + Lomb Ireland Limited, priority 2023, published 2024).

Settings: at levels as high as 800.0 mg

Substance: vitamin E
- adverse effects of vitamin E: No adverse effects
